Data published in paper PMC12392461, “Beyond Estrogenicity: A Comparative Assessment of Bisphenol A and Its Alternatives in In Vitro Assays Questions Safety of Replacements” (Environmental Science & Technology, 2025).
Like-named read-outs stand apart in the source and are kept apart here.

Assays:
[1] = target: T1, Peroxisome proliferator-activated receptor γ (Homo sapiens, UniProt P37231); test: cell-based; settings: for EC10, PPARγ (M): 10% of maximum effect of rosiglitazone; for EC10, linear transformed / EC10, linear / logEC10: PPARγ bioassay, dosing range all; for EC10, linear: linear model; for logEC10: log-logistic model; for SR-ScorePPARγ: SR-Score, sigma k=1, x=5; for EC10, PPARγ: effect; for log(1/EC10) PPARγ: input of the ToxPi score, values up to 1.00; for Emax: read-out: Emax%PPARγ; for Specificity ratio (SRbaseline) SRPPARγ: against baseline cytotoxicity; for Specificity ratio (SRcytotoxicity) SRPPARγ: against experimental cytotoxicity
T1 sequence (P37231 238-505 limits assumed): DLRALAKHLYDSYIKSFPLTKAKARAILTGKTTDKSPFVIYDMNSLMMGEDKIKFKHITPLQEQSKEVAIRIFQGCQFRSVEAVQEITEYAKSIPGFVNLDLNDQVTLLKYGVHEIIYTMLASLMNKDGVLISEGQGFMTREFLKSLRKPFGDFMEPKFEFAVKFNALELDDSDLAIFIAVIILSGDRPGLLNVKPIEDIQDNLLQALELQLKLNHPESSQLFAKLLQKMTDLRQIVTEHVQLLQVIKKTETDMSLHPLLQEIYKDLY
In short: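 ERα-UAS-bla GripTite and PPARγ-UAS-bla β-lactamase reporter cells were seeded and held 24 h at 37 °C, 5% CO₂ before dosing. EC10 values used only concentrations below the IC10 from IncuCyte confluency. Emax% is the log-logistic curve maximum relative to the reference chemical's maximum.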

[2] = Acidity constant (pKa) measurement, Sirius T3 UV-metric, and speciation at pH 7.4; settings: for Double negative form (pH = 7.40) / Negative form (pH = 7.40) / Neutral form (pH = 7.40) / αneutral % (fraction of neutral species): from experimental pKa; for αneutral % (fraction of neutral species): pH 7.4; for pKa: pKa (Acid)
Procedure: Physicochemical properties provide input parameters for the baseline toxicity model. Acidity constants (pK a) and octanol–water partition constants of the neutral species (K ow) were measured with a Sirius T instrument from Pion Inc. (Sussex, UK) (Text S1.2 and Table S1). A detailed description of the pK a and K ow measurements can be found in literature. , […]
S1.2: pKa and log Kow measurements […]
titrator (Pion Inc., Sussex, U.K.). A detailed description of the experimental procedure is available in the literature.1 In brief, each sample was prepared by mixing 5 µL of a 10 mM dimethyl sulfoxide (DMSO) stock solution with 25 µL of a phosphate buffer solution (14.4 mM […]
A reference vial containing 5 µL of DMSO
(Roth, A994-100 ML) and 25 µL of phosphate buffer was analyzed alongside each sample.
The pKa values were determined using the automated UV-metric pKa protocol within the Sirius T3 Control software (version 2.0.0.0.). Each sample was subjected to three consecutive […]
from 2 to 12 by stepwise addition of 0.5 M HCl or 0.5 M potassium hydroxide while recording […]
UV absorbance. […]
To ensure reproducibility, measurements were conducted on at least two

[3] = system: ERα-UAS-bla GripTite cells; settings: TKcytotoxicity-Ratio
Procedure: Cell culture conditions and bioassay protocols including response detection are provided in Text S2.1–2.4 and Table S3. − Cell viability was determined from cell confluency using an IncuCyte S3 Live-Cell Analysis System (Sartorius AG, Essen, Germany) before and after exposure, except for SH-SY5Y cells (live–dead staining with Nuclear Green LcS1 and propidium iodide, Abcam, UK). For metabolic activation experiments, cell viability was assessed using the ToxBLAzer DualScreen Kit (Thermo Fisher Scientific) to capture the remaining toxicity in ERα-UAS-bla GripTite after treatment with the aCYP catalyst (details in Text S2.4). […]
The TK-Ratio method was used to evaluate the impact of abiotic CYP oxidation on the potency of tested compounds. […]
For experiments with the preceding aCYP activation, ERα cell viability was additionally calculated from the readout of the ToxBLAzer reagent. The ToxBLAzer assay was conducted following the manufacturer's instructions (Thermo Fisher, Waltham, MA, U.S.).13 Fluorescence intensity was recorded at the start of the assay ( Fwavelength(0h)) and after a 2-hour incubation at […]
eq. S11 for normalization.
Cell viability = F665nm(2h, sample)-F665nm(0h, average cell-free) (S11) F665nm(2h, average unexposed)-F665nm(0h, average cell-free) […]
the specific endpoint to avoid artifacts from cytotoxicity burst. 15
S2.5: Concentration-response curves (CRCs)
To avoid bias from cytotoxicity burst at higher concentrations, all concentrations exceeding the IC10 for cytotoxicity were excluded in the CRC modeling of effects but otherwise cytotoxicity and effects were fitted with the same model equations (response stands for cytotoxicity or effect). For ERα, AhR, ARE and PPARγ preferably a linear model was fitted to the linear portion of CRC up to maximum 30% effect (eq. S12),16 but in some cases it was necessary to choose a sigmoidal log-concentration-response model, specifically a log-logistic model (eq. S13), to derive effect concentrations and cytotoxicity. […]
This was done using the
AutomatedBioassayScreening19 published by Braun et al.,20 which also included an algorithm to choose the best model between eq. S12 and eq. S13.
Response (%) = slope × C (S12) […]
logEC =logEC − 1 ∙log (max−min − 100%) (S14)

[4] = phosphate buffer with […] KCl, Sirius T3 titrator, experimental, this study

Compound	EC10, PPARγ (M) [1]	EC10, linear transformed [1]	EC10, linear [1]	logEC10 [1]	SR-ScorePPARγ [1]	EC10, PPARγ [1]	log(1/EC10) PPARγ [1]	Emax [1]	Double negative form (pH = 7.40) [2]	Negative form (pH = 7.40) [2]	Neutral form (pH = 7.40) [2]	αneutral % (fraction of neutral species) [2]	pKa ([2]; phosphate buffer with […] KCl, Sirius T3 titrator, second pKa column, experimental, this study)	pKa [2, 4]	TKcytotoxicity ([3]; Table S10)	TKcytotoxicity ([3]; Table S11)	Specificity ratio (SRbaseline) SRPPARγ [1]	Specificity ratio (SRcytotoxicity) SRPPARγ [1]	pKa (Acid) [2]	pKa [2]
Oc1ccc(Sc2ccc(O)cc2)cc1 [BPT, 4,4'-Thiodiphenol]	9.61 × 10^–7 M	9.61E-07	1.48E-06	-6.02	1.00	961 nM	0.85	20%	0.0324%	4.47%	96%	96%	9.54	8.73	1.35	1.00				
Cc1ccc(S(=O)(=O)NC(=O)Nc2cccc(OS(=O)(=O)c3ccc(C)cc3)c2)cc1 [Pergafast, N-(p-toluenesulfonyl)-N'-(3-(p-toluenesulfonyloxy)phenyl)urea]	6.71 × 10^–7 M	6.71E-07	9.42E-07	-6.17	1.00	671 nM	0.87	16%		100%	0.089%	0.089%		4.35	0.45		77.74	28.39		
O=C(OCc1ccccc1)c1ccc(O)cc1 [BzPB, Benzyl 4-hydroxybenzoate]	2.04 × 10^–6 M	2.04E-06	2.87E-06	-5.69	1.00	2040 nM	0.80	16%		0.599%	99%	99%		9.62	1.10		8.14	22.95		
CCC(C)(c1ccc(O)cc1)c1ccc(O)cc1 [BPB, 4,4'-(Butane-2,2-diyl)diphenol]			no effect	no effect					0.000865%	0.736%	99%	99%			0.24				10.33	9.53
Oc1ccc(Cc2ccc(O)cc2)cc1 [BPF, Bis(4-hydroxyphenyl)methane]			no effect	no effect					0.000993%	0.736%	99%	99%			0.75	0.44			10.27	9.53
CC(c1ccccc1)(c1ccc(O)cc1)c1ccc(O)cc1 [BPAP, 4,4'-(1-Phenylethylidene)bisphenol]			no effect	no effect					0.00503%	2%	98%					0.76			9.99	9.1
